Experimental data taken from US20080214560A1, “Use of Pyrimidine Derivatives in the Manufacture of a Medicament for Prevention and/or Treatment of Alzheimer's Disease” (AstraZeneca AB, priority 2005, published 2008).
Counter-ions that a name gives are not always drawn.

Target: T1, recombinant human GSK3β (Homo sapiens, UniProt P49841)
T1 construct: purchased Dundee University, UK
Assay: GSK3β Scintillation Proximity Assay (ATP competition)
Assay type: biochemical
Details: SPA, 1 μM ATP, Km of ATP 20 μM used to calculate Ki
Experimental: Determination of ATP Competition in Scintillation Proximity GSK3β Assay.
GSK3β Scintillation Proximity Assay.
The competition experiments were carried out in duplicate with 10 different concentrations of the inhibitors in clear-bottom microtiter plates (Wallac, Finland). A biotinylated peptide substrate, Biotin-Ala-Ala-Glu-Glu-Leu-Asp-Ser-Arg-Ala-Gly-Ser(PO3H2)-Pro-Gln-Leu (AstraZeneca, Lund), was added at a final concentration of 1 μM in an assay buffer containing 1 mU recombinant human GSK3β (Dundee University, UK), 12 mM morpholinepropanesulfonic acid (MOPS), pH 7.0, 0.3 mM EDTA, 0.01% β-mercaptorethanol, 0.004% Brij 35 (a […] detergent), 0.5% glycerol and 0.5 μg BSA/25 μl. The reaction was initiated by the addition of 0.04 μCi [γ-^33P]ATP (Amersham, UK) and unlabelled ATP at a final concentration of 1 μM and assay volume of 25 μL. After incubation for 20 minutes at room temperature, each reaction was terminated by the addition of 25 μl stop solution containing 5 mM EDTA, 50 μM ATP, 0.1% Triton X-100 and 0.25 mg streptavidin coated Scintillation Proximity Assay (SPA) beads (Amersham, UK). After 6 hours the radioactivity was determined in a liquid scintillation counter (1450 MicroBeta Trilux, Wallac). The inhibition curves were analysed by non-linear regression using GraphPad Prism, USA. The Km value of ATP for GSK3β, used to calculate the inhibition constants (Ki) of the various compounds, was 20 μM.

T1 sequence (P49841 whole entry): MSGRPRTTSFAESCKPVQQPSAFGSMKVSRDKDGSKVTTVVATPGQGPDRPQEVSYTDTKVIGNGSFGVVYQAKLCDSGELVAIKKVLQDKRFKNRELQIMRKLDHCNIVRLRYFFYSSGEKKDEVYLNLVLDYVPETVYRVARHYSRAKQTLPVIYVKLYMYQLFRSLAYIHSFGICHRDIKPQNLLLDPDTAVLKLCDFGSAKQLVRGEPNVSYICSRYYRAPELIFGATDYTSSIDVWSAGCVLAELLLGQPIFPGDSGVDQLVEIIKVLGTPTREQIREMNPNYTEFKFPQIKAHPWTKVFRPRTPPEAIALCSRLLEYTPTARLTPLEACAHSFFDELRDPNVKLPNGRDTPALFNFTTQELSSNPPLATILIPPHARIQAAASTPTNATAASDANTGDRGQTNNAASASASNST

Ki [nM]	SMILES
1.3	Cc1ncc(-c2nc(Nc3ccc(C(=O)c4ccccn4)cc3)ncc2F)n1C(C)C [Example 2, (4-{[5-Fluoro-4-(1-isopropyl-2-methyl-1H-imidazol-5-yl)pyrimidin-2-yl]amino}phenyl)(pyridin-2-yl)methanone hydrochloride]
24	Cc1cc(S(=O)(=O)N2CCN(C)CC2)ccc1Nc1ncc(F)c(-c2cnc(C)n2C(C)C)n1 [Example 5, 5-Fluoro-4-(1-isopropyl-2-methyl-1H-imidazol-5-yl)-N-{2-methyl-4-[(4-methylpiperazin-1-yl)sulfonyl]phenyl}pyrimidin-2-amine hydrochloride]
25	COc1cc(Nc2ncc(F)c(-c3cnc(C)n3C(C)C)n2)ccc1C(=O)N1CCN(C)CC1 [Example 11, 5-Fluoro-4-(1-isopropyl-2-methyl-1H-imidazol-5-yl)-N-{3-methoxy-4-[(4-methylpiperazin-1-yl)carbonyl]phenyl}pyrimidin-2-amine hydrochloride]
3.8	Cc1ncc(-c2nc(Nc3ccc(C(=O)N4CCN(C)CC4)cc3)ncc2F)n1C(C)C [Example 13, 5-Fluoro-4-(1-isopropyl-2-methyl-1H-imidazol-5-yl)-N-{4-[(4-methylpiperazin-1-yl)carbonyl]phenyl}pyrimidin-2-amine hydrochloride]
